Read-outs that look alike come from different tables or passages of the source.
What was measured:
[1] = tested on: patients with statin-induced myopathy (SIM); format: in vivo, human; set-up: triglycerides: unit not given here
Experimental: A clinical study was conducted to evaluate the effects of HMB on patients with statin-induced myopathy (SIM). A total of eighteen patients were evaluated for the study with informed written consent obtained. Of the eighteen patients, fourteen (14) ultimately qualified as having true statin myalgia and were enrolled in the study. All patients enrolled were under the care of a board certified cardiologist.
A summary of the enrolled patients and their outcomes is as follows: • 1. All 14 had type 2a or mixed hyperlipidemia. • 2. All 14 had been treated with multiple statin agents, in each case withdrawing from the statin agent due to myalgia/myopathy. • 3. Of the 14 patients enrolled, 4 had elevated CPKs (creatine phosphokinase, a biomarker for myositis/rhabdomyolysis) secondary to SIM. • 4. Five of the 14 patients had undergone prior percutaneous coronary intervention with stents. • 5. One of the 14 patients had undergone prior coronary bypass surgery. • 6. Four of the 14 patients had angiographically documented moderate coronary artery disease not requiring percutaneous coronary intervention (PCI)/coronary bypass. • 7. Four of the 18 patients were disqualified due to the following: • Patient's leg myalgia was secondary to angiographically proven peripheral vascular disease, not SIM and symptoms were consistent with this diagnosis. • Patient's unilateral leg pain was secondary to neuropathy, not SIM. • Patient complained of GI upset on combined statin+3-hydroxy 3-methybutyrate and medication was discontinued. […] All 14 qualified patients remained on combination statin (in some cases with Zetia to achieve target) plus HMB therapy after the initial duration of the study. As noted, of those who had previously discontinued statin therapy, all had been tried on multiple statin agents without success. • 9. Follow up was conducted with all patients including out-patient visits and phone conversation. • 10.
The free acid form was used in one patient who experienced major CPK elevations (900-1000 IU/L range) and disabling myalgia on statins.
For this study, patients were evaluated using multiple laboratories with variable lab normal ranges, which are included. In the patient population as a whole, the full spectrum of SIM is presented, including statin myalgia […] CPK elevation (myositis or rhabdomyolysis depending on severity), elevation of CPK without myalgia, post-statin elevation of CPK with and without pain, post-statin myalgia without CPK elevation, and, finally, statin-induced muscle weakness without myalgia. Also represented were other statin-induced side effects such as short-term memory loss and glucose intolerance.

[2] = tested on: acute rhabdomyolysis; assay: In-patient treatment of acute rhabdomyolysis with HMB; format: in vivo, human; details: HMB free acid (gel form) 6 g twice daily for 3 days, within 3 days
From the text: HMB administration is used to treat acute rhabdomyolysis in an in-patient setting.
Acute rhabdomyolysis is a rare but extreme and potentially life-threatening disorder that can occur in all groups in a setting of dehydration, trauma, and in younger age groups, intense exercise. […] At this time there is no known method of reversing rhabomyolysis apart from bed rest and hydration.
Protocol: measure patient's CPK; if value exceeds 10 times the upper limit of normal (200 IU/L, depending on laboratory-specific established normal range), initiate the following: • 1. Admit to ICU; • 2. Initiate IV 0.9% saline at 165 ml/hour; • 3. Initiate HMB free acid (gel form), dose 6 g twice daily for 3 days; • 4. Lab: CPK, BUN, creatinine, glucose and electrolytes every 12 hours for 3 days.

[3] = free acid form versus calcium monohydrate form; cited from earlier work
[4] = Patient A-1, 3 months, Crestor 10 mg daily + 2 g BID
[5] = Patient F-6, atorvastatin 40 mg + Zetia 10 mg + 2 g BID, 2-month follow-up

For `CC(C)c1nc(N(C)S(C)(=O)=O)nc(-c2ccc(F)cc2)c1/C=C/[C@@H](O)C[C@@H](O)CC(=O)O` [Crestor®, rosuvastatin, reference compound], which CPK under statin ([1]; human, in vivo) is on record?
Its CPK under statin is 320 IU/L.

Which results are given for `CC(C)(O)CC(=O)O` [HMB free acid]?
CPK ([1]; Patient D-4, free acid 2 gelcaps TID (3 g daily), after ten days, before 378): 257 IU/L; patient-reported state ([1]; Patient D-4, free acid 3 g daily, ten days): felt better; fasting blood glucose ([1]; Patient D-4, free acid 3 g daily, ten days, before >200): 100 mg %; symptoms ([1]; Patient O-15, converted to free acid 1 g TID, three months post-enrollment): completely symptom-free; change in CPK ([1]; free acid gel cap, one patient (D-4) with major CPK elevations on statins): significant decrease; symptoms ([1]; free acid gel cap, one patient (D-4), improvement over calcium monohydrate form): resolution in symptoms; CPK [2]: below 200 IU/L; bioavailability [3]: more bioavailable

With `CC(C)(O)CC(=O)[O-].CC(C)(O)CC(=O)[O-].[Ca+2]` [calcium HMB monohydrate] as the molecule, how does the CPK ([1]; Patient A-1, 2 g BID, 9 days later, before HMB 242, range 26-192) read?
The CPK was 87 IU/L.

What about the “time to complete resolution of all pain” value ([1]; Patient A-1, 2 g BID, post-statin myositis, before re-introducing statin) of the same molecule?
The value was 3 days.

And the CPK [1, 4]?
Its CPK is 110 IU/L.

And the LDL [1, 4]?
Its LDL is 72 mg/dL.

And the symptoms [1, 4]?
Its symptoms is “asymptomatic”.

What about the LDL ([1]; Patient B-2, Vytorin 10/40 + 2 g BID, 50 days, before 168) of the same molecule?
Its LDL is 110 mg %.

What about the CPK ([1]; Patient B-2, Vytorin 10/40 + 2 g BID, 50 days, lab normal range 44-196) of the same molecule?
Its CPK is 173 IU/L.

And the symptoms ([1]; Patient B-2, six months later, on Vytorin)?
The symptoms was “completely asymptomatic”.

What about the symptoms ([1]; Patient C-3, Crestor 10 mg daily + 2 g BID, three months) of the same molecule?
The symptoms was “completely symptom free”.

And the myalgia ([1]; Patient D-4, Crestor 20 mg + Zetia 10 mg + 2 g BID, 37 days)?
Its myalgia is “resolved except for very mild discomfort climbing stairs”.

And the CPK ([1]; Patient D-4, Crestor 20 mg + Zetia 10 mg + 2 g BID, 37 days, before 705, range 26-192)?
Its CPK is 277 IU/L.

What about the LDL ([1]; Patient D-4, Crestor 20 mg + Zetia 10 mg + 2 g BID, 37 days, before >200 mg %) of the same molecule?
The LDL was 49.

And the CPK ([1]; Patient D-4, five months later, diabetes uncontrolled)?
The CPK was 378 IU/L.

And the bilateral calf myalgia ([1]; Patient E-5, 2 g BID, post-statin myalgia)?
The bilateral calf myalgia was “resolved rapidly and completely”.

What about the CPK ([1]; Patient E-5, after HMB treatment 2 g BID, range 39-308) of the same molecule?
Its CPK is 110 IU/L.

And the myalgia [1, 5]?
Its myalgia is “completely resolved”.

And the “short term memory loss” value [1, 5]?
The value was “improved”.

What about the LDL ([1]; Patient F-6, atorvastatin 40 mg + Zetia 10 mg + 2 g BID, repeat) of the same molecule?
Its LDL is 43.

And the CPK ([1]; Patient G-7, statin + 2 g BID, four weeks, range 29-168)?
Its CPK is 39 IU/L.

What about the LDL ([1]; Patient G-7, statin + 2 g BID, four weeks, reduced from 169) of the same molecule?
Its LDL is 108.

And the symptoms ([1]; Patient G-7, statin resumed + 2 g BID, approximately four weeks)?
Its symptoms is “free of all symptoms of myalgia and muscle weakness”.

What about the symptoms ([1]; Patient H-8, 2 g BID combination, one month) of the same molecule?
Its symptoms is “completely asymptomatic”.

What about the bilateral thigh pain ([1]; Patient J-10, Lipitor 10 mg daily + 2 g BID, one month) of the same molecule?
Its bilateral thigh pain is “complete resolution of bilateral thigh pain”.

And the CPK reduction ([1]; Patient K-11, 47 days)?
Its CPK reduction is 32%.

And the LDL reduction ([1]; Patient K-11, 47 days)?
The LDL reduction was 50%.

And the LDL ([1]; Patient K-11, Crestor 20 mg daily + 2 g BID, 47 days, before 282)?
Its LDL is 139.

And the CPK ([1]; Patient K-11, Crestor 20 mg daily + 2 g BID, 47 days, before 282 (29-168))?
The CPK was 191 IU/L.

What about the symptoms ([1]; Patient K-11, exercises near-daily) of the same molecule?
Its symptoms is “pain-free”.

And the LDL ([1]; Patient L-12, Crestor 5 mg daily + 2 g BID, two months, before 122)?
Its LDL is 100.

What about the triglycerides ([1]; Patient L-12, Crestor 5 mg daily + 2 g BID, two months, before 261) of the same molecule?
The triglycerides was 193.

What about the symptoms ([1]; Patient L-12, two months) of the same molecule?
The symptoms was “pain-free”.

And the CPK ([1]; Patient L-12, two months, range 29-168)?
The CPK was 87 IU/L.

And the LDL ([1]; Patient M-13, Crestor + 2 g BID, four months, before 244)?
Its LDL is 114.

What about the CPK ([1]; Patient M-13, Crestor + 2 g BID, four months, before 320, range 39-308) of the same molecule?
The CPK was 210 IU/L.

And the myalgia ([1]; Patient M-13, follow-up five months after enrollment)?
Its myalgia is “All myalgia had resolved”.

What about the CPK reduction ([1]; Patient M-13, four months) of the same molecule?
The CPK reduction was 34%.

And the LDL reduction ([1]; Patient M-13, four months)?
Its LDL reduction is 53%.

What about the muscle weakness ([1]; Patient N-14, statin continued + 2 g BID, 13 days) of the same molecule?
The muscle weakness was “symptoms of muscle weakness had resolved”.

What about the CPK ([1]; Patient O-15, 2 months post-enrollment, 5 days/week weight program, before 274 (30-200)) of the same molecule?
Its CPK is 310 IU/L.

And the LDL ([1]; Patient O-15, 2 months post-enrollment, before 30)?
The LDL was 53.

And the quadriceps/thigh pain ([1]; Patient O-15, combined statin therapy + 2 g BID, four weeks)?
The quadriceps/thigh pain was “complete resolution of all quadriceps/thigh pain”.

And the thigh pain ([1]; Patient P-16, simvastatin + 2 g BID, sixteen days, persistent groin stiffness)?
Its thigh pain is “no longer had any thigh pain”.

Which “CPK under statin (severe rhabdomyolysis)” value ([1]; human, in vivo) does the source give for `CCC(C)(C)C(=O)O[C@H]1C[C@@H](C)C=C2C=C[C@H](C)[C@H](CC[C@@H]3C[C@@H](O)CC(=O)O3)[C@H]21` [simvastatin, reference compound] here?
Its value is 900-1000 IU/L.

From US11147781B2, “Methods for alleviating statin myopathy” (priority 2014, dated 2021)
